# Reference: patent US11180484B2, “Pyrazole derivatives as plasma kallikrein inhibitors” (KALVISTA PHARMACEUTICALS LIMITED, priority 2016, dated 2021)
# Read-outs that look alike come from different tables or passages of the source.
# Assays:
# Human FXIa = Human FXIa (Homo sapiens (Human), UniProt P03951); test: Determination of the % inhibition / IC50 for FXIa; format: biochemical; conditions: for inhibition at 40 µM: 40 μM test compound, read-out: % Inhibition @ 40 μM (human FXIa); for IC50: 25° C., substrate Z-Gly-Pro-Arg-AFC
# Sequence of Human FXIa (P03951 388-625): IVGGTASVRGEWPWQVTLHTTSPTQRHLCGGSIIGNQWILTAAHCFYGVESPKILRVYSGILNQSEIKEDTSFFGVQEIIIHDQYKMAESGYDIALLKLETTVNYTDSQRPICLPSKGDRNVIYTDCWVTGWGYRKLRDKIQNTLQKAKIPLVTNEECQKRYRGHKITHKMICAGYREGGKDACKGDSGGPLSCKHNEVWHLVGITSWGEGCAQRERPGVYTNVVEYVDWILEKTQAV
# Sequence of Human FXIa (P03951 19-387): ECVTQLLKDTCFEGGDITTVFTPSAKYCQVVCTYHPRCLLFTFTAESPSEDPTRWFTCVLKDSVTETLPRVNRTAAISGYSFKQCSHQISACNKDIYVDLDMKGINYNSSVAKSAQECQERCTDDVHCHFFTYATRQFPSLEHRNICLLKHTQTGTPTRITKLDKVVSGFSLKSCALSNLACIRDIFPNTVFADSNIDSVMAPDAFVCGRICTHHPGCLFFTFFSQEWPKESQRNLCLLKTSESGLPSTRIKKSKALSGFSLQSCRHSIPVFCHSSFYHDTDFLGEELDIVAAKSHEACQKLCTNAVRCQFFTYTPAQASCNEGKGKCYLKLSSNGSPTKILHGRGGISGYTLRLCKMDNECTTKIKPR
# Method: FXIa inhibitory activity in vitro was determined using standard published methods (see e.g. Johansen et al., Int. J. Tiss. Reac. 1986, 8, 185; Shori et al., Biochem. Pharmacol., 1992, 43, 1209; Sturzebecher et al., Biol. Chem. Hoppe-Seyler, 1992, 373, 1025). […]
# Human Factor XIIa = Human Factor XIIa (Homo sapiens (Human), UniProt P00748); test: Factor XIIa inhibitory activity in vitro; format: biochemical; conditions: 25° C., substrate H-DPro-Phe-Arg-AFC; read-out: IC50 (human FXIIa)
# Sequence of Human Factor XIIa (P00748 373-615): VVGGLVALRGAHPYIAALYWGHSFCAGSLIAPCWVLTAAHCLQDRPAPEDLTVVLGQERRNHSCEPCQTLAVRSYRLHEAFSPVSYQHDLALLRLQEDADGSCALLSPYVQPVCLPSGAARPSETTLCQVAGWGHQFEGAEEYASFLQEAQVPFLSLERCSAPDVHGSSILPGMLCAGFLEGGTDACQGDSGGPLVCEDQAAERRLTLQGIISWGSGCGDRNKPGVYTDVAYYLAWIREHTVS
# Method: (§1) Human Factor XIIa (Enzyme Research Laboratories) was incubated at 25° C. with the fluorogenic substrate H-DPro-Phe-Arg-AFC and various concentrations of the test compound. Residual enzyme activity (initial rate of reaction) was determined by measuring the change in […] at 410 nm and the IC50 value for the test compound was determined.
# [1] = Predicted plasma clearance (Clp), well-stirred model, human; format: in vitro ADME; conditions: percentage of hepatic blood flow
# Method: (§2) The predicted plasma clearance (Clp) is calculated using the well-stirred model (Rowland M, Benet L Z, and Graham G G. Clearance concepts in pharmacokinetics. J Pharmacokinet Biopharm. (1973) 1:123-136.), one of several models that can be used to extrapolate the in vitro data. The model assumes instantaneous and complete mixing of drug within the liver and is a function of intrinsic clearance, hepatic blood flow and free fraction of drug in the blood. The predicted plasma clearance in mL/min/kg is presented as a percentage of hepatic blood flow (LBF).
# Human KLK1 = Human KLK1 (Homo sapiens (Human), UniProt P06870); test: Determination of the IC50 for KLK1; format: biochemical; conditions: 25° C., substrate H-DVal-Leu-Arg-AFC
# Sequence of Human KLK1 (P06870 25-262): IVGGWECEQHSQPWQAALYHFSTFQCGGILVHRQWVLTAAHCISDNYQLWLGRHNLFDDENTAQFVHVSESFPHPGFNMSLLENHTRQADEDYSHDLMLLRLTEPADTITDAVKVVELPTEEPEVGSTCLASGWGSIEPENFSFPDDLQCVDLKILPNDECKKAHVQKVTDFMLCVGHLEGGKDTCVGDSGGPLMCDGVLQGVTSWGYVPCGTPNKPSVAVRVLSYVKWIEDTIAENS
# Method: as §1, with “KLK1 (Callbiochem)” for “Factor XIIa (Enzyme Research Laboratories)”, “H-DVal-Leu-Arg-AFC” for “H-DPro-Phe-Arg-AFC”
# [2] = Solubility in water and 0.1N HCl (aq); format: physicochemical; conditions: thermodynamic from solid, incubated at 1 mg/mL, 37° C.
# Method: Solubility was determined in water and 0.1N HCl (aq). Test compounds were incubated at 1 mg/mL for 24 hrs at 37° C. on a shaking platform (500 rpm). Samples were taken at 1, 4 and 24 hrs and centrifuged at 15,000 g for 10 min. Test compound concentration in the supernatant was determined by LCMS against a standard curve.
# plasmin = plasmin (Homo sapiens (Human), UniProt P00747); test: Determination of enzyme selectivity: plasmin; format: biochemical; conditions: substrate at Km concentration
# Sequence of plasmin (P00747 581-810): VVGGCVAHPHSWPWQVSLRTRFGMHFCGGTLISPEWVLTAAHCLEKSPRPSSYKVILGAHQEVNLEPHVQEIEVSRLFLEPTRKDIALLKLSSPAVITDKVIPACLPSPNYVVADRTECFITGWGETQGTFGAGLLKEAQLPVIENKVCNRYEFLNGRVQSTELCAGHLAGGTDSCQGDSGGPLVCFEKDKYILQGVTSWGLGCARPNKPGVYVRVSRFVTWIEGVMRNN
# Sequence of plasmin (P00747 97-580): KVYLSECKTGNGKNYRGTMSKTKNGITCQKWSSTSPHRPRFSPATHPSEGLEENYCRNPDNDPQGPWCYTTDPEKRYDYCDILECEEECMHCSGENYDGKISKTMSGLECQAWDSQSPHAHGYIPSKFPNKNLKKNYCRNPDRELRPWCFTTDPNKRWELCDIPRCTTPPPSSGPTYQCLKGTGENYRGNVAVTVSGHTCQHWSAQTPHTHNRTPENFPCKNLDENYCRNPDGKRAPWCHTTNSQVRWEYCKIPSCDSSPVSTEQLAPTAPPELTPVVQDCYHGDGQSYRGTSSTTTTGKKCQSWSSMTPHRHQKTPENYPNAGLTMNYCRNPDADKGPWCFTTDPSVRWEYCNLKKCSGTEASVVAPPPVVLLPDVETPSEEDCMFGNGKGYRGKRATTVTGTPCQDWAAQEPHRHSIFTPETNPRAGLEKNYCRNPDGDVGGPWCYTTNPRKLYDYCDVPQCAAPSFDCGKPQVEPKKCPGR
# Method: (§4) Human serine protease enzymes plasmin, thrombin and trypsin were assayed for enzymatic activity using an appropriate fluorogenic substrate. Protease activity was measured by monitoring the accumulation of liberated fluorescence from the substrate over 5 minutes. The linear rate of fluorescence increase per minute was expressed as percentage (%) activity. The Km for the cleavage of each substrate was determined by standard transformation of the Michaelis-Menten equation.
# [3] = Predicted plasma clearance (Clp), well-stirred model, rat; format: in vitro ADME; conditions: percentage of hepatic blood flow
# Method: as §2
# Human plasma kallikrein [4] = biological target: T1, Human plasma kallikrein (Homo sapiens (Human), UniProt P03952); test: Determination of the IC50 for plasma kallikrein; format: biochemical; conditions: 25° C., substrate H-DPro-Phe-Arg-AFC; read-out: IC50 (human PKal)
# T1 sequence (P03952 391-638): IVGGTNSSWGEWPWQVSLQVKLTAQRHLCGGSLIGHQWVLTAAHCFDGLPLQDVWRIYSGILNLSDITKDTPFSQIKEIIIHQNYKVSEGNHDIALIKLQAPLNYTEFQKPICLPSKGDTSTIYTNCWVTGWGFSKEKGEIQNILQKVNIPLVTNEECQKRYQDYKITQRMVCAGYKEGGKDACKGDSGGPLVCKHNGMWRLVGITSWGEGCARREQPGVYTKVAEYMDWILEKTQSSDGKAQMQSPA
# T1 sequence (P03952 20-390): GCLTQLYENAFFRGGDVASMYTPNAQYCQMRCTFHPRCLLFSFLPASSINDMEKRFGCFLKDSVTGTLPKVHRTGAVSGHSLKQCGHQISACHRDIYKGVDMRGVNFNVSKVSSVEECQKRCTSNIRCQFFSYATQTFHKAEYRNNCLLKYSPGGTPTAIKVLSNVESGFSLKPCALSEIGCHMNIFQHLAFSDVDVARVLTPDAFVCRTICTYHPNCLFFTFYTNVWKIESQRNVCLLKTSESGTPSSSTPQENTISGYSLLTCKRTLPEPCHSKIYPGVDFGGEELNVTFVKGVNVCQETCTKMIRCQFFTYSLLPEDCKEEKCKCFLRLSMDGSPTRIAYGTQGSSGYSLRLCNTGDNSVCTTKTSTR
# Method: as §1, with “plasma kallikrein (Protogen)” for “Factor XIIa (Enzyme Research Laboratories)”
# [5] = Plasma protein binding (PPB), rapid equilibrium dialysis, rat plasma; format: in vitro ADME; conditions: 5 μM test compound, dialysis 5 hrs at 37° C.
# Method: The fraction unbound in plasma was determined using ThermoScientific™ Pierce™ Rapid Equilibrium Dialysis Technology (Single-Use plate with inserts, 8K MWCO). 5 μM test compound was spiked into human or rat plasma (300 μL) and dialysed against 146.5 mM phosphate buffer (500 μL) for 5 hrs at 37° C., shaking at 1200 rpm. Reference samples from the non-dialysed plasma were taken before the incubation to enable an assessment of recovery. Test compound concentrations were determined in plasma and buffer compartments by LCMS against a calibration curve. The fraction unbound in plasma was determined using standard methodology (Waters N J et al (2008) J Pharm Sci 97(10); 4586-95). Results are presented as percent plasma protein bound (% PPB).
# [6] = Intrinsic clearance in rat liver microsomes; format: in vitro ADME; conditions: rat liver microsomes 0.5 mg/mL, 5 μM test compound, 37° C.; read-out: rat liver microsome (Clint μL/min/mg protein)
# Method: (§3) Rat or human liver microsomes (0.5 mg/mL; Corning) were incubated with 5 μM test compound at 37° C. on a shaking platform (150 rpm). Samples were taken at 0, 6, 12, 18, 24 and 60 min and test compound concentrations were determined by LCMS against a calibration curve.
# [7] = In vitro permeability, Caco-2 model for oral absorption; format: in vitro ADME; conditions: human, apical to basolateral, 50 μM test compound, 37° C.
# How it was run: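 Caco-2 monolayers grown on collagen inserts for 3 days, with 50 μM compound added apically and incubated 1 hour at 37° C with shaking. Apical-to-basolateral transport measured by LCMS in both compartments. Monolayer integrity checked by TEER before and after, and by Lucifer Yellow flux.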
# thrombin = thrombin (Homo sapiens (Human), UniProt P00734); test: Determination of enzyme selectivity: thrombin; format: biochemical; conditions: substrate at Km concentration
# Method: as §4
# trypsin = test: Determination of enzyme selectivity: trypsin; format: biochemical, human; conditions: substrate at Km concentration
# Method: as §4
# [8] = Intrinsic clearance in human liver microsomes; format: in vitro ADME; conditions: human liver microsomes 0.5 mg/mL, 5 μM test compound, 37° C.; read-out: Human liver microsome (Clint μL/min/mg protein)
# Method: as §3
# [9] = Plasma protein binding (PPB), rapid equilibrium dialysis, human plasma; format: in vitro ADME; conditions: 5 μM test compound, dialysis 5 hrs at 37° C.
# Method: The fraction unbound in plasma was determined using ThermoScientific™ Pierce™ Rapid Equilibrium Dialysis Technology (Single-Use plate with inserts, 8K MWCO). […] Reference samples from the non-dialysed plasma were taken before the incubation to enable an assessment of recovery. Test compound concentrations were determined in plasma and buffer compartments by LCMS against a calibration curve. […] Results are presented as percent plasma protein bound (% PPB).
# Human plasma kallikrein [10] = biological target: T1, Human plasma kallikrein; test: Determination of the Ki for plasma kallikrein (mixed-model inhibition); format: biochemical
# Method: Plasma kallikrein inhibitory activity in vitro was determined using standard published methods (e.g. Johansen et al., Int. J. Tiss. Reac. 1986, 8, 185; Shori et al., Biochem. Pharmacol., 1992, 43, 1209; Sturzebecher et al., Biol. Chem. Hoppe-Seyler, 1992, 373, 1025). […]. Residual enzyme activity (initial rate of reaction) was determined by measuring the change in fluorescence at 410 nm. The Ki value for the test compound was determined using the mixed-model inhibition equation (based on Equation 3.2 in: RA Copeland, Evaluation of Enzyme Inhibitors in Drug Discovery, Wiley 2005) in GraphPad Prism. The mixed model equation includes competitive, uncompetitive and noncompetitive inhibition as special cases and the parameter of Alpha to indicate mechanism of inhibition.
inhibition at 40 µM (Human FXIa) [%],IC50 (Human FXIa) [µM],IC50 (Human Factor XIIa) [µM],Predicted in vivo human Clp (% LBF) [1] [% LBF],IC50 (Human KLK1) [µM],"solubility ([2]; simulated gastric fluid, 0.1N HCl (aq), read-out: Solubility 0.1N HCl (aq)) [µg/mL]","solubility ([2]; water, read-out: Solubility Water) [µg/mL]",IC50 (plasmin) [µM],Predicted in vivo rat Clp (% LBF) [3] [% LBF],IC50 (Human plasma kallikrein [4]) [µM],"fraction unbound at 5 h, 5 μM [5]",microsomal CLint at 5 μM [6] [µL/min/mg],"Papp at 1 h, 50 μM [7] [×10⁻⁶ cm/s]",IC50 (thrombin) [µM],IC50 (trypsin) [µM],microsomal CLint at 5 μM [8] [µL/min/mg],"fraction unbound at 5 h, 5 μM [9]","Ki (Human plasma kallikrein [10]; human plasma kallikrein, mixed-model inhibition equation) [µM]",Alpha (Human plasma kallikrein [10]; parameter of the mixed-model equation indicating mechanism of inhibition),SMILES
5,> 40,> 40,7,> 40,40,20,> 40,1,0.0017,0.01,15,7,> 40,> 40,24,0.04,–,–,"COc1ccc(F)c(CNC(=O)c2cn(Cc3ccc(Cn4ccccc4=O)cc3)nc2N)c1F [Example 35, 3-amino-N-[(2,6-difluoro-3-methoxyphenyl)methyl]-1-({4-[(2-oxopyridin-1-yl)methyl]phenyl}methyl)pyrazole-4-carboxamide]"
7,> 40,> 40,16,> 40,–,–,> 40,11,0.283,0.05,73,20,> 40,> 40,48,0.08,–,–,"COCc1nn(Cc2ccc(Cn3ccccc3=O)cc2)cc1C(=O)NCc1cc(OC)ccc1C#N [Example 37, N-[(2-cyano-5-methoxyphenyl)methyl]-3-(methoxymethyl)-1-({4-[(2-oxopyridin-1-yl)methyl]phenyl}methyl)pyrazole-4-carboxamide]"
20,> 40,> 40,17,> 40,–,–,> 40,14,0.0004,0.13,47,5,> 40,> 40,22,0.24,0.0001,2.2,"COCc1nn(Cc2ccc(Cn3ccccc3=O)cc2)cc1C(=O)NCc1cc(OC)ccc1-n1cnnn1 [Example 40, N-{[5-methoxy-2-(1,2,3,4-tetrazol-1-yl)phenyl]methyl}-3-(methoxymethyl)-1-({4-[(2-oxopyridin-1-yl)methyl]phenyl}methyl)pyrazole-4-carboxamide]"
27,> 40,> 4,8,> 4,–,–,> 40,2,0.0006,0.08,5,2,> 40,> 40,10,0.12,–,–,"COc1ccc(C#N)c(CNC(=O)c2cn(Cc3ccc(Cn4ccccc4=O)cc3)nc2N)c1F [Example 43, 3-amino-N-[(6-cyano-2-fluoro-3-methoxyphenyl)methyl]-1-({4-[(2-oxopyridin-1-yl)methyl]phenyl}methyl)pyrazole-4-carboxamide]"
5,> 40,> 40,35,> 40,–,–,> 40,10,0.0017,0.04,77,13,> 40,> 40,104,0.1,–,–,"COCc1nn(Cc2ccc(Cn3cc(F)ccc3=O)cc2)cc1C(=O)NCc1c(C#N)ccc(OC)c1F [Example 53, N-[(6-cyano-2-fluoro-3-methoxyphenyl)methyl]-1-({4-[(5-fluoro-2-oxopyridin-1-yl)methyl]phenyl}methyl)-3-(methoxymethyl)pyrazole-4-carboxamide]"
8,> 40,> 40,–,> 40,–,–,> 40,–,0.0176,–,–,2,> 40,> 40,–,–,–,–,"COCc1nn(Cc2ccc(Cn3ccccc3=O)cc2)cc1C(=O)NCc1ccccc1-n1cnnn1 [Example 74, 3-(methoxymethyl)-1-({4-[(2-oxopyridin-1-yl)methyl]phenyl}methyl)-N-{[2-(1,2,3,4-tetrazol-1-yl)phenyl]methyl}pyrazole-4-carboxamide]"
